# According to US9850225B2, “Compounds useful as immunomodulators” (BRISTOL-MYERS SQUIBB COMPANY, priority 2014, dated 2017):
# Molecular target: PD-1/PD-L1 interaction (PD-1-Ig / PD-L1-His) (Homo sapiens (Human), UniProt Q9NZQ7)
# Assay: PD-1/PD-L1 Homogenous Time-Resolved Fluorescence (HTRF) binding assay
# Details: PD-1/PD-L1 HTRF binding assay; numeric value; read-out: Range or IC50
# Method in brief: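 Human PD-L1-His (10 nM final) was pre-incubated with inhibitor for 15 min, then PD-1-Ig (20 nM final) was added for a further 15 min in dPBS with 0.1% BSA and 0.05% Tween-20. Binding was detected by HTRF using Eu-cryptate anti-Ig (1 nM) and APC anti-His (20 nM).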
# Chain of PD-1/PD-L1 interaction (PD-1-Ig / PD-L1-His) (Q9NZQ7 other isoform, or with tags, fused parts or gaps): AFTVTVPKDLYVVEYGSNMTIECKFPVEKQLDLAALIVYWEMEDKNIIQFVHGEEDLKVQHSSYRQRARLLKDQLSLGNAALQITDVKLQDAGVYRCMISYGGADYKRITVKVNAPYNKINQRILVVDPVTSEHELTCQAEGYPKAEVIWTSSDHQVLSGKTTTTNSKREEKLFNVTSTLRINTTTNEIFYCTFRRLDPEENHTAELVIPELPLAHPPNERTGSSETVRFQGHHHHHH
row,Compound,IC50 [µM]
1,"Cc1c(COc2cc(OCc3cccc(C#N)c3)c(CN[C@H](CCO)C(=O)O)cc2Cl)cccc1-c1ccc2c(c1)OCCO2 [Example 1205, (R)-2-((5-chloro-2-((3-cyanobenzyl)oxy)-4-((3-(2,3-dihydrobenzo[b][1,4]dioxin-6-yl)-2-methylbenzyl)oxy)benzyl)amino)-4-hydroxybutanoic acid]",0.00271
2,"Cc1c(COc2cc(OCc3cccc(C#N)c3)c(CNC(C(=O)O)C(C)(C)O)cc2Cl)cccc1-c1ccc2c(c1)OCCO2 (stereo not shown) [Example 1210, 2-((5-chloro-2-((3-cyanobenzyl)oxy)-4-((3-(2,3-dihydrobenzo[b][1,4]dioxin-6-yl)-2-methylbenzyl)oxy)benzyl)amino)-3-hydroxy-3-methylbutanoic acid]",0.0127

# Next, values leading:
row,IC50 [µM],Compound
1,0.0101,"Cc1c(COc2cc(OCc3cccc(C#N)c3)c(CNC(CO)(Cc3ccccc3)C(=O)O)cc2Cl)cccc1-c1ccc2c(c1)OCCO2 (stereo not shown) [Example 1218, 2-benzyl-2-((5-chloro-2-((3-cyanobenzyl)oxy)-4-((3-(2,3-dihydrobenzo[b][1,4]dioxin-6-yl)-2-methylbenzyl)oxy)benzyl)amino)-3-hydroxypropanoic acid]"
2,0.00607,"Cc1c(COc2cc(OCc3cccc(C#N)c3)c(CNC3(C(=O)O)CCN(C)CC3)cc2Cl)cccc1-c1ccc2c(c1)OCCO2 [Example 1220, 4-((5-chloro-2-((3-cyanobenzyl)oxy)-4-((3-(2,3-dihydrobenzo[b][1,4]dioxin-6-yl)-2-methylbenzyl)oxy)benzyl)amino)-1-methylpiperidine-4-carboxylic acid]"

# Same assay, conditions: PD-1/PD-L1 HTRF binding assay; value given as range class; read-out: Range or IC50
row,Compound,IC50 [µM]
1,"CC[C@H](NCc1cc(Cl)c(OCc2cccc(-c3ccc4c(c3)OCCO4)c2C)cc1OCc1cccc(C#N)c1)C(=O)O [Example 1201, (S)-2-((5-chloro-2-((3-cyanobenzyl)oxy)-4-((3-(2,3-dihydrobenzo[b][1,4]dioxin-6-yl)-2-methylbenzyl)oxy)benzyl)amino)butanoic acid]",0.0006 to 0.01
2,"CSCC[C@H](NCc1cc(Cl)c(OCc2cccc(-c3ccc4c(c3)OCCO4)c2C)cc1OCc1cccc(C#N)c1)C(=O)O [Example 1202, (S)-2-((5-chloro-2-((3-cyanobenzyl)oxy)-4-((3-(2,3-dihydrobenzo[b][1,4]dioxin-6-yl)-2-methylbenzyl)oxy)benzyl)amino)-4-(methylthio)butanoic acid]",0.01 to 0.1
3,"Cc1c(COc2cc(OCc3cccc(C#N)c3)c(CN(C)[C@@H](CC(=O)O)C(=O)O)cc2Cl)cccc1-c1ccc2c(c1)OCCO2 [Example 1203, (S)-2-((5-chloro-2-((3-cyanobenzyl)oxy)-4-((3-(2,3-dihydrobenzo[b][1,4]dioxin-6-yl)-2-methylbenzyl)oxy)benzyl)(methyl)amino)succinic acid]",0.0006 to 0.01
4,"Cc1c(COc2cc(OCc3cccc(C#N)c3)c(CN3CC[C@@H](O)[C@H]3C(=O)O)cc2Cl)cccc1-c1ccc2c(c1)OCCO2 [Example 1204, (2S,3R)-1-(5-chloro-2-((3-cyanobenzyl)oxy)-4-((3-(2,3-dihydrobenzo[b][1,4]dioxin-6-yl)-2-methylbenzyl)oxy)benzyl)-3-hydroxypyrrolidine-2-carboxylic acid]",0.0006 to 0.01
5,"Cc1c(COc2cc(OCc3cccc(C#N)c3)c(CN[C@H](Cc3cscn3)C(=O)O)cc2Cl)cccc1-c1ccc2c(c1)OCCO2 [Example 1206, (R)-2-((5-chloro-2-((3-cyanobenzyl)oxy)-4-((3-(2,3-dihydrobenzo[b][1,4]dioxin-6-yl)-2-methylbenzyl)oxy)benzyl)amino)-3-(thiazol-4-yl)propanoic acid]",0.0006 to 0.01
6,"Cc1c(COc2cc(OCc3cccc(C#N)c3)c(CN[C@@H](Cc3cncn3C)C(=O)O)cc2Cl)cccc1-c1ccc2c(c1)OCCO2 [Example 1207, (S)-2-((5-chloro-2-((3-cyanobenzyl)oxy)-4-((3-(2,3-dihydrobenzo[b][1,4]dioxin-6-yl)-2-methylbenzyl)oxy)benzyl)amino)-3-(1-methyl-1H-imidazol-5-yl)propanoic acid]",0.01 to 0.1
7,"Cc1c(COc2cc(OCc3cccc(C#N)c3)c(CN[C@@H](Cc3cscn3)C(=O)O)cc2Cl)cccc1-c1ccc2c(c1)OCCO2 [Example 1208, (S)-2-((5-chloro-2-((3-cyanobenzyl)oxy)-4-((3-(2,3-dihydrobenzo[b][1,4]dioxin-6-yl)-2-methylbenzyl)oxy)benzyl)amino)-3-(thiazol-4-yl)propanoic acid]",0.0006 to 0.01
8,"Cc1c(COc2cc(OCc3cccc(C#N)c3)c(CNC(C(=O)O)c3c[nH]c4ccccc34)cc2Cl)cccc1-c1ccc2c(c1)OCCO2 (stereo not shown) [Example 1211, 2-((5-chloro-2-((3-cyanobenzyl)oxy)-4-((3-(2,3-dihydrobenzo[b][1,4]dioxin-6-yl)-2-methylbenzyl)oxy)benzyl)amino)-2-(1H-indol-3-yl)acetic acid]",0.01 to 0.1
9,"Cc1c(COc2cc(OCc3cccc(C#N)c3)c(CNCC(O)CN3CCOCC3)cc2Cl)cccc1-c1ccc2c(c1)OCCO2 (stereo not shown) [Example 1212, 3-((4-chloro-5-((3-(2,3-dihydrobenzo[b][1,4]dioxin-6-yl)-2-methylbenzyl)oxy)-2-(((2-hydroxy-3-morpholinopropyl)amino)methyl)phenoxy)methyl)benzonitrile]",0.0006 to 0.01
10,"Cc1c(COc2cc(OCc3cccc(C#N)c3)c(CN3CCOCC3C(=O)O)cc2Cl)cccc1-c1ccc2c(c1)OCCO2 (stereo not shown) [Example 1213, 4-(5-chloro-2-((3-cyanobenzyl)oxy)-4-((3-(2,3-dihydrobenzo[b][1,4]dioxin-6-yl)-2-methylbenzyl)oxy)benzyl)morpholine-3-carboxylic acid]",0.01 to 0.1
11,"Cc1c(COc2cc(OCc3cccc(C#N)c3)c(CNC(CO)(C(=O)O)C(C)C)cc2Cl)cccc1-c1ccc2c(c1)OCCO2 (stereo not shown) [Example 1214, 2-((5-chloro-2-((3-cyanobenzyl)oxy)-4-((3-(2,3-dihydrobenzo[b][1,4]dioxin-6-yl)-2-methylbenzyl)oxy)benzyl)amino)-2-(hydroxymethyl)-3-methylbutanoic acid]",0.0006 to 0.01
12,"Cc1c(COc2cc(OCc3cccc(C#N)c3)c(CN3C[C@H](F)C[C@H]3C(=O)O)cc2Cl)cccc1-c1ccc2c(c1)OCCO2 [Example 1215, (2S,4R)-1-(5-chloro-2-((3-cyanobenzyl)oxy)-4-((3-(2,3-dihydrobenzo[b][1,4]dioxin-6-yl)-2-methylbenzyl)oxy)benzyl)-4-fluoropyrrolidine-2-carboxylic acid]",0.01 to 0.1

# Next, values leading:
row,IC50 [µM],Compound
1,0.1 to 20,"Cc1c(COc2cc(OCc3cccc(C#N)c3)c(CNC(CC(F)(F)F)C(=O)O)cc2Cl)cccc1-c1ccc2c(c1)OCCO2 (stereo not shown) [Example 1216, 2-((5-chloro-2-((3-cyanobenzyl)oxy)-4-((3-(2,3-dihydrobenzo[b][1,4]dioxin-6-yl)-2-methylbenzyl)oxy)benzyl)amino)-4,4,4-trifluorobutanoic acid]"
2,0.01 to 0.1,"Cc1c(COc2cc(OCc3cccc(C#N)c3)c(CN[C@@H](Cc3cccc(C#N)c3)C(=O)O)cc2Cl)cccc1-c1ccc2c(c1)OCCO2 [Example 1217, (S)-2-((5-chloro-2-((3-cyanobenzyl)oxy)-4-((3-(2,3-dihydrobenzo[b][1,4]dioxin-6-yl)-2-methylbenzyl)oxy)benzyl)amino)-3-(3-cyanophenyl)propanoic acid]"
3,0.0006 to 0.01,"Cc1c(COc2cc(OCc3cccc(C#N)c3)c(CN3CC[C@H](O)[C@H]3C(=O)O)cc2Cl)cccc1-c1ccc2c(c1)OCCO2 [Example 1219, (2S,3S)-1-(5-chloro-2-((3-cyanobenzyl)oxy)-4-((3-(2,3-dihydrobenzo[b][1,4]dioxin-6-yl)-2-methylbenzyl)oxy)benzyl)-3-hydroxypyrrolidine-2-carboxylic acid]"
4,0.0006 to 0.01,"Cc1c(COc2cc(OCc3cccc(C#N)c3)c(CN[C@@H](Cc3ccccn3)C(=O)O)cc2Cl)cccc1-c1ccc2c(c1)OCCO2 [Example 1221, (S)-2-((5-chloro-2-((3-cyanobenzyl)oxy)-4-((3-(2,3-dihydrobenzo[b][1,4]dioxin-6-yl)-2-methylbenzyl)oxy)benzyl)amino)-3-(pyridin-2-yl)propanoic acid]"
5,0.01 to 0.1,"Cc1c(COc2cc(OCc3cccc(C#N)c3)c(CN3CCSC[C@@H]3C(=O)O)cc2Cl)cccc1-c1ccc2c(c1)OCCO2 [Example 1222, (S)-4-(5-chloro-2-((3-cyanobenzyl)oxy)-4-((3-(2,3-dihydrobenzo[b][1,4]dioxin-6-yl)-2-methylbenzyl)oxy)benzyl)thiomorpholine-3-carboxylic acid]"
6,0.0006 to 0.01,"Cc1c(COc2cc(OCc3cccc(C#N)c3)c(CNC(C)(C)CN3CCN(C)CC3)cc2Cl)cccc1-c1ccc2c(c1)OCCO2 [Example 1223, 3-((4-chloro-5-((3-(2,3-dihydrobenzo[b][1,4]dioxin-6-yl)-2-methylbenzyl)oxy)-2-(((2-methyl-1-(4-methylpiperazin-1-yl)propan-2-yl)amino)methyl)phenoxy)methyl)benzonitrile]"
7,0.01 to 0.1,"Cc1c(COc2cc(OCc3cccc(C#N)c3)c(CN3CCN(C)CC3C(=O)O)cc2Cl)cccc1-c1ccc2c(c1)OCCO2 (stereo not shown) [Example 1224, 1-(5-chloro-2-((3-cyanobenzyl)oxy)-4-((3-(2,3-dihydrobenzo[b][1,4]dioxin-6-yl)-2-methylbenzyl)oxy)benzyl)-4-methylpiperazine-2-carboxylic acid]"
8,0.0006 to 0.01,Cc1c(COc2cc(OCc3cccc(C#N)c3)c(CNCC(O)CN3CCCC3=O)cc2Cl)cccc1-c1ccc2c(c1)OCCO2 (stereo not shown) [Example 1225]
9,0.01 to 0.1,"Cc1c(COc2cc(OCc3cccc(C#N)c3)c(CN3CCc4nc[nH]c4C3C(=O)O)cc2Cl)cccc1-c1ccc2c(c1)OCCO2 (stereo not shown) [Example 1226, 5-(5-chloro-2-((3-cyanobenzyl)oxy)-4-((3-(2,3-dihydrobenzo[b][1,4]dioxin-6-yl)-2-methylbenzyl)oxy)benzyl)-4,5,6,7-tetrahydro-3H-imidazo[4,5-c]pyridine-4-carboxylic acid]"
